Source: US9259401B2 (priority 2011, dated 2016)

Legend:
[1] = tested on: Male Laca mice; assay: Porsolt Forced Swim test (behavioural despair test); assay type: in vivo
Method: Method: Porsolt Forced Swim test (also called behavioural despair test)
Animals are subjected to two trials during which they are force to swim in an acrylic glass cylinder filled with water and from which they cannot escape. The first trial lasts 15 minutes. Then, after 24-hours, a second trial is performed which lasts 5 minutes. The time that the animal spends without moving in the second trial is measured. This immobility time is decreased by antidepressants.
After some time, the mice give up the attempt to escape from the water and subside into immobility. The duration of the immobility is measured. An animal was considered to be immobile whenever it remained floating passively in the water in a slightly hunched but upright position, its nose above the water surface. […] The total immobility period during the 6-min test was recorded with the help of stopwatch.
The immobility period data obtained from tables 1, 2 and 3 is plotted against the dose administered in FIG. 1, FIG. 2 and FIG. 3 respectively, as shown in the drawing accompanying this specification.
Test Procedures: Porsolt Forced Swim test. Rectangular glass jar (25×12×25 cm^3) containing 15 cm of water maintained at 24±1° C.
The immobility period data obtained from Tables 4, 5, 6 and 7 is plotted against the dose administered in FIG. 4, FIG. 5, FIG. 6 and FIG. 7 respectively, as shown in the drawing accompanying this specification.

[2] = tested on: Norepinephrine; assay: Biological amine levels by HPLC-ECD after 45 min: norepinephrine; assay type: in vivo, mice; settings: fluoxetine 10 mg/kg
Method: (§1) Test Substances: […] Animals: Male Laca mice. Test Procedures: Animals were sacrificed after 45 min of drug administration similar to the time period of behavioral observations. HPLC-ECD detector: Mobile phase—Phosphate buffer: […] • Column—ODS-3 C-18 column (250×4.6 mm I.D.; 5 μm particle size)

[3] = tested on: 5-hydroxytryptamine; assay: Biological amine levels by HPLC-ECD after 45 min: 5-hydroxytryptamine; assay type: in vivo, mice; settings: fluoxetine 10 mg/kg
Method: as §1

[4] = tested on: Dopamine; assay: Biological amine levels by HPLC-ECD after 45 min: dopamine; assay type: in vivo, mice; settings: fluoxetine 10 mg/kg
Method: as §1

[5] = Table 6, desipramine alone 5 mg/kg ip
[6] = Table 5, venlafaxine alone 2 mg/kg ip
[7] = Table 4, fluoxetine alone 5 mg/kg ip
[8] = Table 7, tranylcypromine alone 5 mg/kg ip

`CNCCCN1c2ccccc2CCc2ccccc21` [Desipramine] was tested, and the “% Decrease in immobility w.r.t vehicle group” value [1, 5] was 17.46% and the “Immobility period” value [1, 5] was 211.5 ± 21.97 s.

For `COc1ccc(C(CN(C)C)C2(O)CCCCC2)cc1` (centres unmarked) [Venlafaxine], the “% Decrease in immobility w.r.t vehicle group” value [1, 6] was 8.69% and the “Immobility period” value [1, 6] was 193.8 ± 13.26 s.

`CNCCC(Oc1ccc(C(F)(F)F)cc1)c1ccccc1` (centres unmarked) [Fluoxetine] was tested, and the “Norepinephrine % increase w.r.t Control” value [2] was 40.87%, the “Norepinephrine (ng/mg tissue)” value ([2]; n = 5) was 4.17 ± 0.23a ng/mg tissue and the “5-hydroxytryptamine % increase w.r.t Control” value [3] was 36.52%. The “5-hydroxytryptamine (ng/mg tissue)” value ([3]; n = 5) was 5.42 ± 0.13 ng/mg tissue, the “% Decrease in immobility w.r.t saline treated group” value ([1]; Table 1, fluoxetine 10 mg/kg) was 74.30% and the “Immobility period” value ([1]; Table 1, fluoxetine 10 mg/kg) was 57 ± 17.45 s. The “% Decrease in immobility w.r.t saline treated group” value ([1]; Table 2, fluoxetine 10 mg/kg) was 70.51%, the “Immobility period” value ([1]; Table 2, fluoxetine 10 mg/kg) was 57 ± 17.45 s and the “% Decrease in immobility w.r.t saline treated group” value ([1]; Table 3, fluoxetine 10 mg/kg) was 70.51%. The “Immobility period” value ([1]; Table 3, fluoxetine 10 mg/kg) was 57 ± 17.45 s, the “% Decrease in immobility w.r.t saline group” value [1, 7] was 12.30% and the “Immobility period” value [1, 7] was 172.75 ± 10.4 s. The “Dopamine % increase w.r.t Control” value [4] was 12.15% and the “Dopamine (ng/mg tissue)” value ([4]; n = 5) was 6.09 ± 0.54 ng/mg tissue.

In the case of `N[C@@H]1C[C@H]1c1ccccc1` (racemic) [Tranylcypromine], the “% Decrease in immobility w.r.t vehicle group” value [1, 8] is reported as 15.15% and the “Immobility period” value [1, 8] is reported as 234 ± 20.41 s.
